These results are taken from US10253015B2, “Pyridinyl quinolinone derivatives as mutant-isocitrate dehydrogenase inhibitors” (FORMA TM2, Inc., priority 2014, dated 2019).

One may read the IC50 as the point on the concentration scale where inhibition reaches its midpoint.

Structures are written as SMILES.

The target in this experiment is IDH1-R132H recombinant protein (Homo sapiens (Human), UniProt O75874, R132H). Briefly: IDH1-R132H enzymatic assay. As to conditions: inhibition of NADPH consumption, diaphorase/resazurin readout; read-out: Enzyme IDH1 R132H Range IC50. The experiment is classed as biochemical. The procedure: Assays were performed in a 384-well black plate. […] After the plate was centrifuged briefly, an aliquot of 10 μL of 2 mM α-ketoglutarate and 20 μM NADPH solution prepared in assay buffer was then added to each well and the reaction was maintained at 25° C. for 45 minutes. An aliquot of 10 μL of diaphorase solution (0.15 U/mL diaphorase and 30 μM Resazurin in assay buffer) was added to each well. […] The IC50 of a given compound was calculated by fitting the dose response curve of inhibition of NADPH consumption at a given concentration with the four parameter logistic equation.
Sequence of IDH1-R132H recombinant protein (O75874 whole entry R132H): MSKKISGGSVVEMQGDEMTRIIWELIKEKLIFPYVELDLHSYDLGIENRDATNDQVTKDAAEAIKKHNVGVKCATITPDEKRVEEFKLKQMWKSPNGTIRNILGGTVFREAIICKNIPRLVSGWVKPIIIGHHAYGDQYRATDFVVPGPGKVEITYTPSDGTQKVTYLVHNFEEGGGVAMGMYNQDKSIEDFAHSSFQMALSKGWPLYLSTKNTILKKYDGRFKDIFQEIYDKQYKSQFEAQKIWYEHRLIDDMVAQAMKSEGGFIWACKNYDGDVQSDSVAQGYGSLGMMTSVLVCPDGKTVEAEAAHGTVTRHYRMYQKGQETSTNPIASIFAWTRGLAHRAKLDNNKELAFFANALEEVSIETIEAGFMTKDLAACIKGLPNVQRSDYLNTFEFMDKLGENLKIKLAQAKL
For the compound `Cc1n[nH]c(C)c1-c1ccnc(N[C@@H](C)c2cc3cc(Cl)ccc3[nH]c2=O)c1F` [Compound I-51, 6-chloro-3-[(1S)-1-{[4-(3,5-dimethyl-1H-pyrazol-4-yl)-3-fluoropyridin-2-yl]amino}ethyl]-1,2-dihydroquinolin-2-one], the half-maximal inhibitory concentration (IC50) fell in the range of 1 to 10 µM.

As for `Cc1nc(NC2(c3cc4cc(Cl)ccc4[nH]c3=O)CC2)ccc1C#N` [Compound I-31, 6-{[1-(6-chloro-2-oxo-1,2-dihydroquinolin-3-yl)cyclopropyl]amino}-2-methylpyridine-3-carbonitrile], the IC50 lay in the range of 0.1 to 1 µM.

Regarding `O=c1[nH]c2ccc(Cl)cc2cc1CNc1cccnc1O` [Compound I-76, 6-chloro-3-{[(2-hydroxypyridin-3-yl)amino]methyl}-1,2-dihydroquinolin-2-one], the IC50 lay within 1 to 10 µM.

In the case of `O=c1[nH]c2ccc(Cl)cc2cc1CNc1ccc(C(F)(F)F)cn1` [Compound I-77, 6-chloro-3-({[5-(trifluoromethyl)pyridin-2-yl]amino}methyl)-1,2-dihydroquinolin-2-one], the IC50 was more than 10 µM.

Regarding `CC(C)[C@H]1COC(=O)N1c1cccc(N[C@H](C)c2cc3cc(Cl)ccc3[nH]c2=O)n1` [Compound I-20, 6-chloro-3-[(1R)-1-({6-[(4S)-2-oxo-4-(propan-2-yl)-1,3-oxazolidin-3-yl]pyridin-2-yl}amino)ethyl]-1,2-dihydroquinolin-2-one], the IC50 was more than 10 µM.

For the compound `CC(C)C1CCCN1c1nc(NCc2cc3cc(Cl)ccc3[nH]c2=O)ccc1C#N` (centres unmarked) [Compound I-64, 6-{[(6-chloro-2-oxo-1,2-dihydroquinolin-3-yl)methyl]amino}-2-[2-(propan-2-yl)pyrrolidin-1-yl]pyridine-3-carbonitrile], the IC50 was more than 10 µM.

As to `COc1ccnc(NCc2cc3cc(Cl)ccc3[nH]c2=O)c1` [Compound I-70, 6-chloro-3-{[(4-methoxypyridin-2-yl)amino]methyl}-1,2-dihydroquinolin-2-one], the IC50 was 1 to 10 µM.

In the case of `Cc1nc(NC(C)(C)c2cc3cc(Cl)ccc3[nH]c2=O)ccc1C#N` [Compound I-32, 6-{[2-(6-chloro-2-oxo-1,2-dihydroquinolin-3-yl)propan-2-yl]amino}-2-methylpyridine-3-carbonitrile], the half-maximal inhibitory concentration (IC50) fell in the range of 0.1 to 1 µM.

Turning to `N#Cc1ccc(NCc2cc3cc(Cl)ccc3[nH]c2=O)cn1` [Compound I-78, 5-{[(6-chloro-2-oxo-1,2-dihydroquinolin-3-yl)methyl]amino}pyridine-2-carbonitrile], the 50% inhibitory concentration (IC50) was more than 10 µM.

As to `Cc1cscc1-c1ccnc(N[C@@H](C)c2cc3cc(Cl)ccc3[nH]c2=O)c1F` [Compound I-46, 6-chloro-3-[(1S)-1-{[3-fluoro-4-(4-methylthiophen-3-yl)pyridin-2-yl]amino}ethyl]-1,2-dihydroquinolin-2-one], the half-inhibitory concentration (IC50) is 1 to 10 µM.

As for `Cc1cn(-c2ccnc(N[C@@H](C)c3cc4cc(Cl)ccc4[nH]c3=O)c2F)cn1` [Compound I-38, 6-chloro-3-[(1S)-1-{[3-fluoro-4-(4-methyl-1H-imidazol-1-yl)pyridin-2-yl]amino}ethyl]-1,2-dihydroquinolin-2-one], the IC50 was 1 to 10 µM.

As to `C[C@H](Nc1nccc(-c2cccn2C)c1F)c1cc2cc(Cl)ccc2[nH]c1=O` [Compound I-42, 6-chloro-3-[(1S)-1-{[3-fluoro-4-(1-methyl-1H-pyrrol-2-yl)pyridin-2-yl]amino}ethyl]-1,2-dihydroquinolin-2-one], the concentration for half-maximal inhibition (IC50) lay in the range of 1 to 10 µM.

For the compound `C[C@H](Nc1cccc(N2CCCS2(=O)=O)n1)c1cc2cc(Cl)ccc2[nH]c1=O` [Compound I-35, 2-(6-{[(1S)-1-(6-chloro-2-oxo-1,2-dihydroquinolin-3-yl)ethyl]amino}pyridin-2-yl)-1λ^6,2-thiazolidine-1,1-dione], the 50% inhibitory concentration (IC50) is 1 to 10 µM.

Regarding `C[C@H](Nc1nccc(-c2ccnn2C2CCCCO2)c1F)c1cc2cc(Cl)ccc2[nH]c1=O` (stereo partly drawn) [Compound I-55, 6-chloro-3-[(1S)-1-({3-fluoro-4-[1-(oxan-2-yl)-1H-pyrazol-5-yl]pyridin-2-yl}amino)ethyl]-1,2-dihydroquinolin-2-one], the IC50 is more than 10 µM.

On to `C[C@H](Nc1nccc(-n2ccnc2)c1F)c1cc2cc(Cl)ccc2[nH]c1=O` [Compound I-37, 6-chloro-3-[(1S)-1-{[3-fluoro-4-(1H-imidazol-1-yl)pyridin-2-yl]amino}ethyl]-1,2-dihydroquinolin-2-one], for which the IC50 was 1 to 10 µM.

Regarding `Cc1nc(NCc2cc3cc(Cl)c(OCc4ccccn4)cc3[nH]c2=O)ccc1C#N` [Compound I-84, 6-({[6-chloro-2-oxo-7-(pyridin-2-ylmethoxy)-1,2-dihydroquinolin-3-yl]methyl}amino)-2-methylpyridine-3-carbonitrile], the half-maximal inhibitory concentration (IC50) is 0.1 to 1 µM.

For `N#Cc1ccc(NCc2cc3cc(Cl)ccc3[nH]c2=O)nc1N1CCOC1=O` [Compound I-63, 6-{[(6-chloro-2-oxo-1,2-dihydroquinolin-3-yl)methyl]amino}-2-(2-oxo-1,3-oxazolidin-3-yl)pyridine-3-carbonitrile], the IC50 was more than 10 µM.

For `O=c1[nH]c2ccc(Cl)cc2cc1CNc1cc(C(F)(F)F)ccn1` [Compound I-79, 6-chloro-3-({[4-(trifluoromethyl)pyridin-2-yl]amino}methyl)-1,2-dihydroquinolin-2-one], the concentration for half-maximal inhibition (IC50) is more than 10 µM.

Regarding `COc1ccc2[nH]c(=O)c(CNc3cc(C)ccn3)cc2c1` [Compound I-82, 6-methoxy-3-{[(4-methylpyridin-2-yl)amino]methyl}-1,2-dihydroquinolin-2-one], the IC50 is more than 10 µM.

As for `CC(C)n1nccc1-c1ccnc(N[C@@H](C)c2cc3cc(Cl)ccc3[nH]c2=O)c1F` [Compound I-57, 6-chloro-3-[(1S)-1-({3-fluoro-4-[1-(propan-2-yl)-1H-pyrazol-5-yl]pyridin-2-yl}amino)ethyl]-1,2-dihydroquinolin-2-one], the IC50 is more than 10 µM.

For the compound `CC(C)c1cccnc1NCc1cc2cc(Cl)ccc2[nH]c1=O` [Compound I-68, 6-chloro-3-({[3-(propan-2-yl)pyridin-2-yl]amino}methyl)-1,2-dihydroquinolin-2-one], the IC50 fell in the range of 0.1 to 1 µM.

Turning to `N#Cc1ccc(NCc2cc3cc(Cl)ccc3[nH]c2=O)nc1Cl` [Compound I-62, 2-chloro-6-{[(6-chloro-2-oxo-1,2-dihydroquinolin-3-yl)methyl]amino}pyridine-3-carbonitrile], the concentration for half-maximal inhibition (IC50) is more than 10 µM.

As for `COc1nc(C#N)ccc1NCc1cc2cc(Cl)ccc2[nH]c1=O` [Compound I-61, 5-{[(6-chloro-2-oxo-1,2-dihydroquinolin-3-yl)methyl]amino}-6-methoxypyridine-2-carbonitrile], the IC50 is less than 0.1 µM.

For the compound `Cc1c(-c2ccnc(N[C@@H](C)c3cc4cc(Cl)ccc4[nH]c3=O)c2F)cnn1C` [Compound I-45, 6-chloro-3-[(1S)-1-{[4-(1,5-dimethyl-1H-pyrazol-4-yl)-3-fluoropyridin-2-yl]amino}ethyl]-1,2-dihydroquinolin-2-one], the IC50 was 1 to 10 µM.

`COc1nc(NCc2cc3cc(Cl)ccc3[nH]c2=O)ccc1C#N` [Compound I-66, 6-{[(6-chloro-2-oxo-1,2-dihydroquinolin-3-yl)methyl]amino}-2-methoxypyridine-3-carbonitrile]: the half-maximal inhibitory concentration (IC50) was more than 10 µM.

In the case of `Cc1cc(NCCO)cc(N[C@@H](C)c2cc3cc(Cl)ccc3[nH]c2=O)n1` [Compound I-33, 6-chloro-3-[(1S)-1-({4-[(2-hydroxyethyl)amino]-6-methylpyridin-2-yl}amino)ethyl]-1,2-dihydroquinolin-2-one], the IC50 lay within 1 to 10 µM.
